Reference: patent US5180735A, “Cyclohexanol derivatives, production and use thereof” (Takeda Chemical Industries, Ltd., priority 1989, dated 1993)

test system: angiogenesis due to bFGF (rat cornea); test: Angiogenesis inhibitory action by the rat cornea micropocket method; assay type: in vivo, male Sprague-Dawley rats; details: sustained release pellet, 20 μg sample, next to bFGF pellet (250 ng) in cornea; observed after 10 days
Source text: Angiogenesis inhibitory action by the rat cornea micropocket method
Essentially the same method of Gimbrone et al. [J. National Cancer Institute 52:413-419 (1974)] was follows.
Specifically, adult male Sprague-Dawley rats (11 to 16 week old) were anesthetized with nembtal and locally anesthetized by instillation of xylocaine eyedrops onto the eyeball. The cornea was incised to a length of about 2 mm at about 2 mm inside from the corneal circumference by means of an injection needle, and a basic fibroblast growth factor (bFGF, bovine brain-derived, purified product, R & D Inc.) and a sustained release pellet containing the test sample were inserted side by side into the incision so that the bFGF pellet was located on the central side in the cornea. In the control group, the bFGF pellet and a sample-free pellet were inserted into the cornea. After 10 days, the cornea was observed under a stereoscopic microscope.
The sustained release pellets were prepared in the following manner. An ethylene-vinyl acetate copolymer (Takeda Chemical Industries, Ltd.) was dissolved in dichloromethane to a concentration of 8%. A 3 μl portion of the solution was air-dried on a glass dish, an aqueous solution of bFGF (250 ng) was then placed thereon and air-dried and, finally 3 μl of the above-mentioned ethylene-vinyl acetate copolymer solution was placed further thereon and air-dried to give a sandwich sheet. This sandwich sheet was made round into a bFGF pellet. The test sample pellets were prepared by dissolving each sample in ethanol to a concentration of 20 μg/2 μl, mixing the solution with 6 μl of an ethylene-vinyl acetate copolymer solution, air-drying the mixed solution on a glass dish and making the thus-obtained sheet round.
In the above Table 1, the number of rats subjected to the test was shown by denominator, and the number of rats whose […] due to bFGF was retarded or weakened by administration of the test sample was shown by numerator. In the judgment, +means an inhibition rate of 70% or more, and ±means that of less than 70% but exceeding 40%.

| Compound | Inhibitory Rate (rats whose angiogenesis due to bFGF was retarded or weakened / rats subjected to the test) | Judgment (Angiogenesis Inhibitory Activity) |
| --- | --- | --- |
| CO[C@@H]1[C@H](O)CC[C@](O)(C[N+]2([O-])CCCC2)[C@H]1[C@@]1(C)O[C@@H]1CC=C(C)C [Example 48, 2-(1,2-Epoxy-1,5-dimethyl-4-hexenyl)-3-methoxy-1-(pyrrolidin-1-yl)methyl-1,4-cyclohexanediol N-oxide] | 4/7 | ± (that of less than 70% but exceeding 40%) |
| C=C(C)C(=O)NC(=O)O[C@@H]1CC[C@](O)(CCl)[C@@H]([C@@]2(C)O[C@@H]2CC=C(C)C)[C@@H]1OC [Example 3, 4-O-(methacryloylcarbamoyl)-2-(1,2-epoxy-1,5-dimethyl-4-hexenyl)-3-methoxy-1-chloromethyl-1,4-cyclohexanediol] | 4/7 | ± (that of less than 70% but exceeding 40%) |
| CO[C@@H]1[C@H](OC(N)=O)CC[C@](O)(C[S+](C)C)[C@H]1[C@@]1(C)O[C@@H]1CC=C(C)C [Example 70, 4-Carbamoyloxy-2-(1,2-epoxy-1,5-dimethyl-4-hexenyl)-3-methoxy-1-dimethylsulfoniomethyl-cyclohexanol iodide] | 5/6 | + (an inhibition rate of 70% or more) |
| CO[C@@H]1[C@H](OC(=O)NC(=O)CSc2nc3ccccc3s2)CC[C@](O)(CCl)[C@H]1[C@@]1(C)O[C@@H]1CC=C(C)C [Example 91] | 6/6 | + (an inhibition rate of 70% or more) |
| CO[C@@H]1[C@H](OC(=O)NC(=O)C(C)CCl)CC[C@](O)(CCl)[C@H]1[C@@]1(C)O[C@@H]1CC=C(C)C (stereo partly drawn) [Example 4, 4-O-(3-Chloro-2-methyl-propionylcarbamoyl)-2-(1,2-epoxy-1,5-dimethyl-4-hexenyl)-3-methoxy-1-chloromethyl-1,4-cyclohexanediol] | 3/5 | ± (that of less than 70% but exceeding 40%) |
| CO[C@@H]1[C@H](O)CC[C@](O)(CSC)[C@H]1[C@@]1(C)O[C@@H]1CC=C(C)C [Example 10, 2-(1,2-Epoxy-1,5-dimethyl-4-hexenyl)-3-methoxy-1-methylthiomethyl-1,4-cyclohexanediol] | 4/7 | ± (that of less than 70% but exceeding 40%) |

test system: M5076 cells; test: Antitumor test in mice inoculated subcutaneously with M5076 cells (tumor size, T/C); assay type: in vivo, C57BL/6 mice; details: 20 mg/kg, subcutaneous, 10 times in total; tumor size after 13 days
Procedure: C57BL/6 mice (a group consisting of 6 mice) were inoculated subcutaneously at the dorsolateral area with 2×10^6 M5076 cells, and then a test compound dissolved in a 5% gum arabic physiological saline solution was subcutaneously administered 10 times in total, i.e. 1st, 2nd, 4th, 5th, 6th, 7th, 8th, 9th, 11th and 12th day after the inoculation. After 13 days, the major axis (a) and the minor axis (b) of the tumor tissue were measured to determine the tumor size by the calculation formula of a×b^2 ×1/2. The ratio of the tumor size thus calculated to the tumor size of animals in the control group was shown by T/C (%).

| Compound | T/C (%) (ratio of tumor size to control group) |
| --- | --- |
| 4-(N'-chloroacetylureido)-2-(1,2-epoxy-1,5-dimethyl-4-hexenyl)-1-(1,3-dihydrobenzo[c]thiophen-2-ylio)methyl-3-methoxycyclohexanol chloride [Example 100] | 22% |
| CO[C@@H]1[C@H](OC(=O)NC(=O)CCl)CC[C@](O)(C[S+](C)Cc2cccc(Br)c2)[C@H]1[C@@]1(C)O[C@@H]1CC=C(C)C (single isomer, unassigned) [Example 65B, 1-(3-bromobenzyl)methylsulfoniomethyl-4-(N-chloroacetylcarbamoyloxy)-2-(1,2-epoxy-1,5-dimethyl-4-hexenyl)-3-methoxycyclohexanol bromide] | 37% |
| CO[C@@H]1[C@H](OC(=O)NC(=O)CCl)CC[C@](O)(C[S+](C)Cc2cccc(Br)c2)[C@H]1[C@@]1(C)O[C@@H]1CC=C(C)C (single isomer, unassigned) [Example 65A, 1-(3-bromobenzyl)methylsulfoniomethyl-4-(N-chloroacetylcarbamoyloxy)-2-(1,2-epoxy-1,5-dimethyl-4-hexenyl)-3-methoxycyclohexanol bromide] | 9% |

same assay, conditions: Mus musculus, M5076, sc, 312 h, 20 mg/kg, subcutaneous, 10 times in total; tumor size after 13 days; read-out: T/C (%) (ratio of tumor size to control group)

| Compound | response vs control in vivo at 20 mg/kg |
| --- | --- |
| CO[C@@H]1[C@H](OC(=O)NC(=O)CCl)CC[C@](O)(C[S+](C)Cc2cccc(Br)c2)[C@H]1[C@@]1(C)O[C@@H]1CC=C(C)C (stereo partly drawn) [Example 64, 1-(3-Bromobenzyl)methylsulfoniomethyl-4-(N-chloroacetylcarbamoyloxy)-2-(1,2-epoxy-1,5-dimethyl-4-hexenyl)-3-methoxycyclohexanol bromide] | 24% |
| CO[C@@H]1[C@H](OC(=O)NC(=O)CCl)CC[C@](O)(C[S+](C)Cc2ccc(Br)cc2)[C@H]1[C@@]1(C)O[C@@H]1CC=C(C)C (stereo partly drawn) [Example 60, 1-(4-Bromobenzyl)methylsulfoniomethyl-4-(N-chloroacetylcarbamoyloxy)-2-(1,2-epoxy-1,5-dimethyl-4-hexenyl)-3-methoxycyclohexanol bromide] | 21% |
| CO[C@@H]1[C@H](OC(=O)NC(=O)CCl)CC[C@](O)(C[S+](C)Cc2ccc(F)cc2)[C@H]1[C@@]1(C)O[C@@H]1CC=C(C)C (stereo partly drawn) [Example 62, 4-(N-Chloroacetylcarbamoyloxy)-2-(1,2-epoxy-1,5-dimethyl-4-hexenyl)-1-(4-fluorobenzyl)methylsulfoniomethyl-3-methoxycyclohexanol bromide] | 29% |
| CO[C@@H]1[C@H](OC(=O)NC(=O)CCl)CC[C@](O)(C[S+]2CC3CC=CCC3C2)[C@H]1[C@@]1(C)O[C@@H]1CC=C(C)C (stereo partly drawn) [Example 104, 4-(N-chloroacetylcarbamoyloxy)-2-(1,2-epoxy-1,5-dimethyl-4-hexenyl)-1-(1,3,3a,4,7,7ahexahydrobenzo[c]thiophen-2-ylio)methyl-3-methoxycyclohexanol chloride] | 16% |
| CO[C@@H]1[C@H](OC(=O)NC(=O)CCl)CC[C@](O)(C[S+](C)Cc2ccccc2)[C@H]1[C@@]1(C)O[C@@H]1CC=C(C)C (stereo partly drawn) [Example 76, 1-Benzylmethylsulfoniomethyl-4-chloroacetylcarbamoyloxy-2-(1,2-epoxy-1,5-dimethyl-4-hexenyl)-3-methoxycyclohexanol hydrogen L-tartrate] | 29% |
| CO[C@@H]1[C@H](OC(=O)NC(=O)CCl)CC[C@](O)(C[S+](C)Cc2ccc(Cl)cc2)[C@H]1[C@@]1(C)O[C@@H]1CC=C(C)C (stereo partly drawn) [Example 61, 4-(N-Chloroacetylcarbamoyloxy)-1-(4-chlorobenzyl)methylsulfoniomethyl-2-(1,2-epoxy-1,5-dimethyl-4-hexenyl)-3-methoxycyclohexanol bromide] | 27% |
| CO[C@@H]1[C@H](OC(=O)NC(=O)CCl)CC[C@](O)(C[S+]2Cc3ccccc3C2)[C@H]1[C@@]1(C)O[C@@H]1CC=C(C)C [Example 82, 4-(N-Chloroacetylcarbamoyloxy)-2-(1,2-epoxy-1,5-dimethyl-4-hexenyl)-1-(1,3-dihydrobenzo[c]thiophen-2-ylio)methyl-3-methoxycyclohexanol chloride] | 9% |

same assay, conditions: Mus musculus, M5076, sc, 312 h, 30 mg/kg, subcutaneous, 10 times in total; tumor size after 13 days; read-out: T/C (%) (ratio of tumor size to control group)

| Compound | response vs control in vivo at 30 mg/kg |
| --- | --- |
| C=C(C)C(=O)NC(=O)O[C@@H]1CC[C@](O)(CCl)[C@@H]([C@@]2(C)O[C@@H]2CC=C(C)C)[C@@H]1OC [Example 3, 4-O-(methacryloylcarbamoyl)-2-(1,2-epoxy-1,5-dimethyl-4-hexenyl)-3-methoxy-1-chloromethyl-1,4-cyclohexanediol] | 36% |
| C=CC(=O)NC(=O)O[C@@H]1CC[C@](O)(CCl)[C@@H]([C@@]2(C)O[C@@H]2CC=C(C)C)[C@@H]1OC [Example 2, 4-O-(Acryloylcarbamoyl)-2-(1,2-epoxy-1,5-dimethyl-4-hexenyl)-3-methoxy-1-chloromethyl-1,4-cyclohexanediol] | 20% |
| CO[C@@H]1[C@H](OC(=O)NC(=O)CCl)CC[C@](O)(C[S+](C)Cc2ccccc2)[C@H]1[C@@]1(C)O[C@@H]1CC=C(C)C (stereo partly drawn) [Example 16, 4-O-(N-chloroacetylcarbamoyl)-2-(1,2-epoxy-1,5-dimethyl-4-hexenyl)-3-methoxy-1-benzylmethylsulfoniomethyl-1,4-cyclohexanediol bromide] | 20% |
| CO[C@@H]1[C@H](OC(=O)NC(=O)CCl)CC[C@](O)(C[S+](C)C)[C@H]1[C@@]1(C)O[C@@H]1CC=C(C)C [Example 13, 4-O-(Chloroacetylcarbamoyl)-2-(1,2-epoxy-1,5-dimethyl-4-hexenyl)-3-methoxy-1-dimethylsulfoniomethyl-1,4-cyclohexanediol iodide] | 36% |
| C#CC[S+](C)C[C@@]1(O)CC[C@@H](OC(=O)NC(=O)CCl)[C@@H](OC)[C@@H]1[C@@]1(C)O[C@@H]1CC=C(C)C (stereo partly drawn) [Example 17, 4-O-(Chloroacetylcarbamoyl)-2-(1,2-epoxy-1,5-dimethyl-4-hexenyl)-3-methoxy-1-(2-propinyl)-methylsulfoniomethyl-1,4-cyclohexanediol bromide] | 21% |
